In ChEMBL document CHEMBL1201862, “PubChem BioAssay data set” (2004):
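Tested at 5 concentrations; 48 h exposure; 96-well plates; endpoints linearly interpolated, else capped at highest concentration. The concentration for 50% growth inhibition is given as GI50.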 Active and inactive are the calls of the source. No stated cut-off is given here; in the data, active = GI50 up to about 1.1 µM and inactive = higher.

What was measured:
Experiment in all cases: DTP human tumour cell line panel, 48 h
[1] = test system: A549
[2] = test system: ACHN
[3] = test system: COLO 205
[4] = test system: EKVX
[5] = test system: HCT-116
[6] = test system: HCT-15
[7] = test system: K562
[8] = test system: MOLT-4
[9] = test system: NCI-H522
[10] = test system: OVCAR-3
[11] = test system: RXF 393
[12] = test system: SK-MEL-2
[13] = test system: SN12C
[14] = test system: SNB-19
[15] = test system: UACC-62
[16] = test system: MDA-MB-435
[17] = test system: NCI/ADR-RES
[18] = test system: HCC 2998

With `CC(C)(C)c1cc(C(=O)O)c(C(c2ccccc2)c2ccccc2C(=O)O)c(C(=O)O)c1` (stereo unspecified) the GI50 [1] was > 100 µM (inactive), the GI50 [2] was 20.7 µM (inactive) and the GI50 [3] was 33.8 µM (inactive). For the same compound, the GI50 [4] was > 100 µM (inactive), the GI50 [5] was > 100 µM (inactive) and the GI50 [6] was over 100 µM. The GI50 [7] was > 100 µM (inactive), the GI50 [8] was > 100 µM (inactive) and the GI50 [9] was 2.52 µM (inactive). The GI50 [10] was > 100 µM (inactive), the GI50 [11] was > 100 µM (inactive) and the GI50 [12] was > 100 µM (inactive). The GI50 [13] was 21.9 µM (inactive), the GI50 [14] was > 100 µM (inactive) and the GI50 [15] was > 100 µM (inactive).

With `Cc1ccc(/C=C2\CCCc3ccccc3C2=O)cc1` the GI50 [1] was 5.86 µM (inactive), the GI50 [2] was 31.8 µM (inactive) and the GI50 [3] was 4.94 µM (inactive). The GI50 [4] was 12 µM (inactive), the GI50 [5] was 13.7 µM (inactive) and the GI50 [6] was 6.64 µM. The GI50 [7] was 12.2 µM (inactive), the GI50 [16] was 2.6 µM (inactive) and the GI50 [8] was 17.7 µM (inactive). The GI50 [9] was 6.25 µM (inactive), the GI50 [17] was 8.67 µM (inactive) and the GI50 [10] was 15 µM (inactive). The GI50 [12] was 2.38 µM (inactive), the GI50 [13] was 11.7 µM (inactive) and the GI50 [14] was 19.5 µM (inactive). The GI50 [15] was 9.51 µM (inactive).

With `CCOC(=O)C1(C(=O)OCC)C[C@H](C)[C@](C)(O)C1` the GI50 [1] was > 100 µM (inactive), the GI50 [2] was > 100 µM (inactive) and the GI50 [3] was > 100 µM (inactive). For the same compound, the GI50 [4] was > 100 µM (inactive), the GI50 [5] was > 100 µM (inactive) and the GI50 [6] was over 100 µM. The GI50 [7] was > 100 µM (inactive), the GI50 [16] was > 100 µM (inactive) and the GI50 [8] was > 100 µM (inactive). For the same compound, the GI50 [9] was > 100 µM (inactive), the GI50 [17] was > 100 µM (inactive) and the GI50 [10] was > 100 µM (inactive). For the same compound, the GI50 [11] was > 100 µM (inactive), the GI50 [12] was > 100 µM (inactive) and the GI50 [13] was > 100 µM (inactive). For the same compound, the GI50 [14] was > 100 µM (inactive) and the GI50 [15] was > 100 µM (inactive).

With `NC1(c2cc3ccccc3s2)CCCCCC1` the GI50 [1] was 18.1 µM (inactive), the GI50 [2] was 19.3 µM (inactive) and the GI50 [3] was 12.6 µM (inactive). For the same compound, the GI50 [4] was 18.7 µM (inactive), the GI50 [18] was 1.98 µM (inactive) and the GI50 [5] was 16.1 µM (inactive). The GI50 [6] was 17.1 µM, the GI50 [7] was 10.1 µM (inactive) and the GI50 [16] was 16.1 µM (inactive). For the same compound, the GI50 [8] was 14.1 µM (inactive), the GI50 [17] was 15 µM (inactive) and the GI50 [10] was 15.7 µM (inactive). The GI50 [11] was 12.7 µM (inactive), the GI50 [12] was 10.4 µM (inactive) and the GI50 [13] was 16.8 µM (inactive). For the same compound, the GI50 [14] was 18.2 µM (inactive) and the GI50 [15] was 18 µM (inactive).

`CC(C)COC(c1ccc2c(c1)OCO2)C(C)Br` (stereo unspecified) was tested, and the GI50 [1] was 29.1 µM (inactive), the GI50 [2] was 34 µM (inactive) and the GI50 [3] was 22.6 µM (inactive). For the same compound, the GI50 [4] was 26.2 µM (inactive), the GI50 [18] was 18.4 µM (inactive) and the GI50 [5] was 17.2 µM (inactive). For the same compound, the GI50 [6] was 23.3 µM, the GI50 [7] was 46.7 µM (inactive) and the GI50 [16] was 21.7 µM (inactive). The GI50 [9] was 18.7 µM (inactive), the GI50 [17] was 28.4 µM (inactive) and the GI50 [10] was 16.2 µM (inactive). The GI50 [11] was 10.5 µM (inactive), the GI50 [12] was 21.8 µM (inactive) and the GI50 [13] was 20.7 µM (inactive). For the same compound, the GI50 [14] was 33.7 µM (inactive) and the GI50 [15] was 31.7 µM (inactive).

`O=C1CC(C(OCc2ccccc2)C(OCc2ccccc2)C(OCc2ccccc2)C(COCc2ccccc2)OCc2ccccc2)CC(=O)N1` (stereo unspecified) was tested, and the GI50 [1] was > 100 µM (inactive), the GI50 [2] was > 100 µM (inactive) and the GI50 [4] was > 100 µM (inactive). For the same compound, the GI50 [18] was > 100 µM (inactive), the GI50 [6] was over 100 µM and the GI50 [7] was > 100 µM (inactive). For the same compound, the GI50 [16] was > 100 µM (inactive), the GI50 [8] was 59 µM (inactive) and the GI50 [17] was > 100 µM (inactive). For the same compound, the GI50 [10] was > 100 µM (inactive), the GI50 [11] was 6.52 µM (inactive) and the GI50 [13] was > 100 µM (inactive). The GI50 [14] was > 100 µM (inactive).

For `C[Si](C)(C)CN1C(=O)c2ccccc2C1(O)c1ccccc1` (stereo unspecified), the GI50 [1] was 40.4 µM (inactive), the GI50 [2] was 56.1 µM (inactive) and the GI50 [3] was 92.7 µM (inactive). For the same compound, the GI50 [4] was 91 µM (inactive), the GI50 [18] was > 100 µM (inactive) and the GI50 [5] was 48 µM (inactive). The GI50 [6] was over 68.4 µM, the GI50 [7] was 40.1 µM (inactive) and the GI50 [8] was 24.2 µM (inactive). The GI50 [9] was 33.5 µM (inactive), the GI50 [10] was > 86.3 µM (inactive) and the GI50 [11] was 75.2 µM (inactive). The GI50 [12] was 97.1 µM (inactive), the GI50 [13] was > 89.3 µM (inactive) and the GI50 [14] was > 100 µM (inactive). The GI50 [15] was 62.7 µM (inactive).
